From patent publication US6818407B2, “Anti-endotoxic antimicrobial cationic peptides and methods of use therfor” (priority 1998, dated 2004)
Ends that are not written are not given here.

How the values were obtained:
[1] = Lethal endotoxemia in galactosamine-sensitized mice; type: in vivo, CD-1 mice; conditions: peptide 200 μg intraperitoneal within 10 min of 10 μg LPS; 24 hours post injection; 5 mice per group; no peptide 100
Experimental: To confirm this in vivo, endotoxic shock was induced by intraperitoneal injection of 10 μg of E.coli 0111:B4 LPS in phosphate-buffered saline (PBS; pH 7.2) into galactosamine-sensitized 8- to 10- week old female CD-1 mice (5 per group). In experiments involving peptides, 200 μg in 100 μl of sterile water was injected at separate intraperitoneal sites within 10 min of LPS injection. Survival was monitored at 24 hours post injection.

E. coli = assay: MIC, broth microdilution assay in polypropylene microtiter trays; type: cell-based; conditions: average of three separate experiments
Experimental: (§1) The biological activity of the peptides can be determined by standard methods known to those of skill in the art, such as Aminimal inhibitory concentration (MIC)≅ assay described in the present examples, whereby the lowest concentration at which no change in OD is observed for a given period of time is recorded as MIC. Alternatively, Afractional inhibitory concentration (FIC)≅ is also useful for determination of synergy between the peptides of the invention, or the peptides in combination with known antibiotics. FICs are performed by checkerboard titrations of peptides in one dimension of a microtiter plate, and of antibiotics in the other dimension, for example. The FIC is calculated by looking at the impact of one antibiotic on the MIC of the other and vice versa. […] Preferably, an FIC of less than 0.5 is obtained for synergism. As used herein, FIC can be determined as follows: [formula]
(§2) A method which employed polypropylene microtiter trays in a broth microdilution assay was developed.

P. aeruginosa = assay: as above; type: cell-based; conditions: average of three separate experiments
Experimental: as §1, §2

S. aureus K147 = assay: as above; type: cell-based; conditions: average of three separate experiments
Experimental: as §1, §2

S. aureus = assay: as above; type: cell-based; conditions: average of three separate experiments
Experimental: as §1, §2

S. epidermis = assay: as above; type: cell-based; conditions: average of three separate experiments
Experimental: as §1, §2

[2] = system: Pseudomonas aeruginosa strain M2; assay: Protection of neutropenic CD-1 mice challenged with Pseudomonas aeruginosa; type: in vivo; parameters: Survival post bacterial challenge, surviving mice: reference not given here; conditions: for Survival (%) post bacterial challenge: PBS 8
Experimental: CD-1 mice were induced to be neutropenic via 3 intraperitoneal injections of cyclophosphamide ([…]) every another day. Immediately after the third administration of cyclophosphamide, the mice were challenged by intraperitoneal injection of Pseudomonas aeruginosa strain M2 (200-300 organisms/mouse). Cationic peptides (200 µg per mouse=8 mg/kg) in 100 µl buffered citrate were injected intraperitoneally at 30 min (single dose) or 30 min and 16 hrs (double dose) post bacterial challenge, respectively. The data were the average values of 2 individual experiments. PBS was used as a control. […] In general single dose protection studies gave better protection than double dose experiments.

[3] = system: Aeromonas salmonicida (As); type: cell-based; conditions: Mueller Hinton Broth
Experimental: as §1
(§3) These peptides varied in activity (Table 11), however, the C-terminally capped pleurocidin especially and its N-terminally capped lysine derivative had much better activities against a variety of bacteria including Vibrio anguillarum (Va), Aeromonas salmonicida (As), Staphylococcus epidermidis (C621), Salmonella typhimurium wild type (C587) and phoP phoQ mutant (C610), and Pseudomonas aeruginosa wild type (K799) and outer membrane barrier altered (Z61). The antimicrobial peptide CEME, a fusion peptide made from portions of an insect defensin ceropin A and the bee venom peptide melittin (Piers and Hancock, Mol. Microbiol., 12:951-8, 1994), as well as the known antibiotics polymyxin B and gentamicin were used as controls. Replacing the pleurocidin N-terminus with the dermaseptin N-terminus had no effect. Replacing pleurocidin N-terminus with the ceratoxin N-terminus reduced activity. […] Amidating the C-terminus improved antimicrobial activity. Replacing the pleurocidin C-terminus with the misgurin C-terminus had no effect.
(§4) Bacteria included Vibrio anguillarum (Va), Aeromonas salmonicida (As), Staphylococcus epidermidis (C621), Salmonella typhimurium wild type (C587) and phoP phoQ mutant (C6 10), and Pseudomonas aeruginosa wild type (K799) and outer membrane barrier altered (Z61).

[4] = system: Pseudomonas aeruginosa outer membrane barrier altered (Z61); type: cell-based; conditions: Mueller Hinton Broth
Experimental: as §1, §3, §4

[5] = system: Pseudomonas aeruginosa wild type (K799); type: cell-based; conditions: Mueller Hinton Broth
Experimental: as §1, §3, §4

[6] = system: Salmonella typhimurium phoP phoQ mutant (C610); type: cell-based; conditions: Mueller Hinton Broth
Experimental: as §1, §3, §4

[7] = system: Salmonella typhimurium wild type (C587); type: cell-based; conditions: Mueller Hinton Broth
Experimental: as §1, §3, §4

[8] = system: Staphylococcus epidermidis (C621); type: cell-based; conditions: Mueller Hinton Broth
Experimental: as §1, §3, §4

Vibrio anguillarum (Va) = type: cell-based; conditions: Mueller Hinton Broth
Experimental: as §1, §3, §4

Row | Molecule | MIC As [3] [µg/mL] | MIC Z61 [4] [µg/mL] | MIC K799 [5] [µg/mL] | MIC C610 [6] [µg/mL] | MIC C587 [7] [µg/mL] | MIC C621 [8] [µg/mL] | MIC Va (Vibrio anguillarum (Va)) [µg/mL] | also measured
1 | CC[C@H](C)[C@H](NC(=O)CNC(=O)[C@@H](NC(=O)[C@H](CCCCN)NC(=O)[C@H](CCCCN)NC(=O)[C@H](Cc1ccccc1)NC(=O)[C@H](CC(C)C)NC(=O)[C@H](CCCCN)NC(=O)[C@H](Cc1c[nH]c2ccccc12)NC(=O)[C@@H](N)CCCCN)[C@@H](C)CC)C(=O)NCC(=O)N[C@@H](C)C(=O)N[C@H](C(=O)N[C@@H](CC(C)C)C(=O)N[C@@H](CCCCN)C(=O)N[C@H](C(=O)N[C@@H](CC(C)C)C(=O)N[C@H](C(=O)N[C@H](C(=O)NCC(=O)N[C@@H](CC(C)C)C(=O)N1CCC[C@H]1C(=O)N[C@@H](C)C(=O)N[C@@H](CC(C)C)C(=O)N[C@@H](CCCCN)C(=O)N[C@@H](CC(C)C)C(=O)N[C@H](C(=O)N[C@@H](CCCCN)C(=O)O)[C@@H](C)O)[C@@H](C)O)[C@@H](C)O)C(C)C)C(C)C [CEMA, reference compound] |  |  |  |  |  |  |  | Mortality (%) [1]: 0%
2 | CC[C@H](C)[C@H](NC(=O)[C@H](CC(C)C)NC(=O)[C@H](C)NC(=O)[C@@H]1CCCN1C(=O)[C@H](CC(C)C)NC(=O)CNC(=O)[C@@H](NC(=O)[C@@H](NC(=O)[C@H](CC(C)C)NC(=O)[C@@H](NC(=O)[C@H](CCCCN)NC(=O)[C@H](CCCCN)NC(=O)[C@@H](NC(=O)[C@H](C)NC(=O)[C@@H](NC(=O)[C@@H](NC(=O)[C@H](CC(C)C)NC(=O)[C@H](CCCCN)NC(=O)[C@H](CCCCN)NC(=O)[C@@H](NC(=O)[C@H](Cc1ccccc1)NC(=O)[C@H](CO)NC(=O)[C@H](CCCCN)NC(=O)[C@H](Cc1c[nH]c2ccccc12)NC(=O)[C@@H](N)CCCCN)[C@@H](C)CC)[C@@H](C)O)[C@@H](C)O)C(C)C)C(C)C)[C@@H](C)O)[C@@H](C)O)C(=O)N[C@@H](CO)C(=O)O [CP-29, reference compound] |  |  |  |  |  |  |  | MIC E. coli (E. coli): 2 µg/mL; MIC P. aeruginosa (P. aeruginosa): 6 µg/mL; MIC S. aureus K147 (S. aureus K147): 11 µg/mL; MIC S. aureus (S. aureus): 19 µg/mL; MIC S. epidermis (S. epidermis): 5 µg/mL; Survival post bacterial challenge, surviving mice ([2]; single dose (200 μg per mouse i.p. at 30 min), 16 hr): 8; Survival post bacterial challenge, surviving mice ([2]; single dose, 24 hr): 8; Survival post bacterial challenge, surviving mice ([2]; single dose, 41 hr): 7; Survival post bacterial challenge, surviving mice ([2]; single dose, 48 hr): 6; Survival post bacterial challenge, surviving mice ([2]; single dose, 64 hr): 4; Survival (%) post bacterial challenge ([2]; single dose, 64 hr): 50%; Survival post bacterial challenge, surviving mice ([2]; single dose, 72 hr): 4; Survival (%) post bacterial challenge ([2]; single dose, 72 hr): 50%; Survival post bacterial challenge, surviving mice ([2]; single dose, 96 hr): 3; Survival (%) post bacterial challenge ([2]; single dose, 96 hr): 37%
3 | SIGSAFKKAAHVGKHVGKAALGAAARRRK [CER-M] | 32 | 64 | >64 | 8 | >64 | >64 | >64 | 
4 | SIGSAFKKAAHVGKHVGKAALTHYL-NH2 [P-CER] | 8 | >64 | >64 | 2 | >64 | >64 | 64 | 
5 | gentamicin [reference compound] | <0.5 | <0.5 | <0.5 | <0.5 | <0.5 | 16 | 1 | 
6 | polymyxin B [reference compound] | <0.5 | <0.5 | <0.5 | <0.5 | <0.5 | 16 | 16 | 
